Results on 6 compounds are retold here after patent US20130252930A1 (BIOMARIN PHARMACEUTICAL INC., priority 2010, published 2013).

Read-outs that look alike come from different tables or passages of the source.

In series [1] the target is T1, CYP17 (human testicular microsome) (Homo sapiens, UniProt P05093).
T1 construct: using microsomal fraction from human testis (Celsis Cat #S00110) as the enzyme source; tissue Celsis S00110; host or cells: human testis microsomal fraction
T1 sequence (P05093 1-508): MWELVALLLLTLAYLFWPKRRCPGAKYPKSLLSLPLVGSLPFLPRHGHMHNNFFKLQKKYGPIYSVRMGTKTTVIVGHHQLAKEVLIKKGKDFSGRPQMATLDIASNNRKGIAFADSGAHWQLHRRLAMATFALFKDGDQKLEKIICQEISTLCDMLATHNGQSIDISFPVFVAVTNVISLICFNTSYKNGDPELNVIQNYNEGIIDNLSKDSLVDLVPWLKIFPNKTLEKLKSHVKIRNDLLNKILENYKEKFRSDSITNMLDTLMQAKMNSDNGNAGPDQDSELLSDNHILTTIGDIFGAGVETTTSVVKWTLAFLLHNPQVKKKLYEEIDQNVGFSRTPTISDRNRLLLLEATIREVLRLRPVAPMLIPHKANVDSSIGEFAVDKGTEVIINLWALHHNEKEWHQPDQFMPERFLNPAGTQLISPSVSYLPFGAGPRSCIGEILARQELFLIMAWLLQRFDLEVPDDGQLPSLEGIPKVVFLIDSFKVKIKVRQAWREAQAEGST
The series can be described thus: CYP17 enzymatic assay (IC50) (Biological Example 4). The series is classed as biochemical. Particulars: human testicular microsome.

Series [2] concerns the target T1, CYP17 (human testicular microsome). Briefly: CYP17 enzymatic assay (% inhibition at 10 nM), version 1 (Biological Example 5). The series is classed as biochemical. Particulars: 10 nM compound, DHEA by ELISA, read-out: Biological Example No. 5: CYP17 percent inhibition at 10 nM (version 1). In general terms: An ELISA detects its analyte on a solid surface through an enzyme-linked reagent.

For a further series, the target named is T2, CYP17 (H295R cells) (Homo sapiens, UniProt P05093).
T2 construct: endogenous in cells; host or cells: H295R cells
T2 sequence (P05093 1-508): T1 sequence (P05093 1-508)
Briefly: CYP17 cellular assay (IC50), testosterone in H295R cells (Biological Example 7). It is filed as cell-based. Particulars: H295R cells. In a few lines: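 Testosterone in the medium was quantified by ELISA after 24 h at 37 °C with test compound (final 100, 10, 1, 0.1 nM; serum-free DMEM/F-12, ITS+, 0.1% methanol). The H295R cells had been seeded and grown 24 h beforehand; vehicle wells served as control.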

For series [3], the system named is rat Cyp11B enzyme (rat adrenal mitochondria). The series can be described thus: CYP11B enzymatic assay (% inhibition at 100 nM) (Biological Example 9). It is filed as biochemical. Particulars: for CYP11B enzymatic assay % inhibition at 100 nM (Biological Example No. 9): compound at 100 nM. The method, then: Adrenals excised from Sprague Dawley rats were homogenized, and mitochondria fraction were prepared by a series of centrifugation as described in Shuji Ohno, et al. J. of Steroid Biochemistry & Molecular Biology 2002, 80, 355-363. Prepared mitochondria protein was washed and resuspended in Buffer B (0.21 M mannitol, 70 mM sucrose, 5 mM MgCl2, 0.5 mM CaCl2, 20 mM Tris-HCl (pH 7.4) and 1 mM DTT, […]). The protein concentration was determined by BCA assay and stored as 10 μL aliquots at −80° C.
The rat Cyp11B enzyme assay was performed in 96-well plates. Typical assays were carried out in total 50 μL volume that included test compounds at 100 nM concentration, 1× Buffer B, 0.5 mM NADPH, 0.1 μM 11-deoxycortisol, and 2 μL of prepared rat adrenal mitochondria (added last). Reaction without test compound served as positive control and reaction without NADPH served as negative control. Reactions were allowed to incubate at 37° C. for 60 min with gentle shaking. The reaction was stopped by directly applying the enzymatic reaction mixture (1:5 diluted in ELISA assay buffer) to ELISA plate for evaluation of cortisol concentration according to manufacturer's protocol (Assay Design).
The mean absorbance value for each sample was used to determine the corresponding concentration from the standard curve. Amount of cortisol in the negative control (reaction that dis not include NADPH) was subtracted from total cortisol. Percent inhibition (inhibition %) of the compound was calculated using normalized cortisol concentration based on following formula: 100−([Cortisol] of compound/[Cortisol] of positive control *100).

Series [4] addresses T1, CYP17 (human testicular microsome). The series can be described thus: CYP17 enzymatic assay (% inhibition at 1 nM) (Biological Example 12). The series is classed as biochemical.
Series [5] in a line: Human liver microsome stability assay (Biological Example 8b). The note with it: liver microsomes, pH 7.4. In general terms: Microsomes from liver hold many membrane-bound enzymes, among them those of drug oxidation.
Method: The reaction was started with addition of excess NADPH (5 mg/mL, 15 μL in 0.1 M potassium phosphate buffer, 1.0 mM EDTA, pH 7.4), the total volume is 45 μL (compound final concentration was 1 μM). […] 50 μL of the supernatant was transferred from each well into a 96-well sample plate containing 50 μL of ultra-pure water (Millipore) for LC-MS/MS analysis.
Series [6] concerns the target T3, Cyp21 enzyme (Human HEK 293-Cyp21 stable transfected cells) (Homo sapiens, UniProt P08686).
T3 construct: expressed in transfected cells
T3 sequence (P08686 1-495): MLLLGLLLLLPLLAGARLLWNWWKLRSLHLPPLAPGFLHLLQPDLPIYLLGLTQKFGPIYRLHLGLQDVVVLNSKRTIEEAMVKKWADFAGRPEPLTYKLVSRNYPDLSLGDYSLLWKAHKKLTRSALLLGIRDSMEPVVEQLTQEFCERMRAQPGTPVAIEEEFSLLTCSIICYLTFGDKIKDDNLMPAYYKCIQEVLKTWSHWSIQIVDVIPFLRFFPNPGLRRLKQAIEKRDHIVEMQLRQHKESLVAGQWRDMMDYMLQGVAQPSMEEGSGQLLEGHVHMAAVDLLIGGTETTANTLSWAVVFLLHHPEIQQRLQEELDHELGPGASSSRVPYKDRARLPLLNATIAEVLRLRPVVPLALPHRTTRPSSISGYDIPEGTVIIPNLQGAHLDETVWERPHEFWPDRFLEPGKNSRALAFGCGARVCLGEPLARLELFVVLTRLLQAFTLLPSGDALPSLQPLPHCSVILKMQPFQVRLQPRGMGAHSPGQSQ
The series can be described thus: CYP21-HEK293 enzymatic assay (IC50) (Biological Example 11). It is filed as cell-based. The note with it: HEK 293-Cyp21 cells; read-out: CYP21-HEK293 enzymatic assay IC50 (Biological Example No. 11).

The mark [7] stands for this setting: read-out: CYP17 enzymatic assay IC50 (Biological Example No. 4).
Where [8] appears, read: compound at 1 nM, read-out: CYP17 enzymatic assay % inhibition at 1 nM (Biological Example No. 12).

Take `C[C@]12CC[C@H](O)CC1=CC[C@@H]1[C@@H]2CC[C@]2(C)C(c3cccnc3)=CC[C@@H]12` [C, (3S,8R,9S,10R,13S,14S)-10,13-dimethyl-17-(pyridin-3-yl)-2,3,4,7,8,9,10,11,12,13,14,15-dodecahydro-1H-cyclopenta[a]phenanthren-3-ol, reference compound]: the IC50 in series [1] (DHEA by ELISA, read-out: Biological Example No. 4: CYP17 enzymatic assay IC50) was less than 11 nM; on CYP17 (H295R cells) (testosterone by ELISA, 24 hours, read-out: Biological Example No. 7: CYP17 cellular assay IC50) it was less than 15 nM. Further, the inhibition at 0.01 µM in series [2] is greater than 80%. In addition, in series [3] (100 nM compound, cortisol by ELISA), the “Biological Example No. 9: CYP11B percent inhibition at 100 nM” value is recorded as “T (T means the compound had a percent inhibition of less than 32% when tested at 100 nM)”. Moreover, in series [4] (1 nM compound, DHEA by ELISA, read-out: Biological Example No. 12: CYP17 percent inhibition at 1 nM), the inhibition at 0.001 µM is greater than 50%. The compound also came in with a half-life at 1 μM in series [5] of 1 to 50 min.
As for `CCC(=O)N1CCC[C@@]2(C)[C@@H](CC[C@@H]3[C@@H]2CC[C@]2(C)C(n4ccnc4)=CC[C@@H]32)C1` [Compound 441, 1-((5aR,5bS,7aS,10aS,10bR,12aR)-8-(1H-imidazol-1-yl)-5a,7a-dimethyl-3,4,5,5a,5b,6,7,7a,10,10a,10b,11,12,12a-tetradecahydrocyclopenta[5,6]naphtho[2,1-c]azepin-2(1H)-yl)propan-1-one], the figures for the IC50 in series [1] (setting [7]) and in series [6] were less than 11 nM and 10 to 100 nM, respectively. For the same compound, the “CYP11B enzymatic assay % inhibition at 100 nM (Biological Example No. 9)” value in series [3] is “U (U means the compound had a percent inhibition of greater than or equal to 32%)”. Besides, the inhibition at 0.001 µM in series [4] (setting [8]) lay within 10 to 50%.
With `CCC(=O)N1CCC2CCC3C(CC[C@]4(C)C(c5cccnc5)=CCC34)[C@@]2(C)CC1` (stereo partly drawn) [Compound 436, 1-((5aS,7aS)-5a,7a-dimethyl-8-(pyridin-3-yl)-1,2,5,5a,5b,6,7,7a,10,10a,10b,11,12,12a-tetradecahydrocyclopenta[5,6]naphtho[1,2-d]azepin-3(4H)-yl)propan-1-one], the IC50 in series [1] (setting [7]) was less than 11 nM; in series [6], greater than 1000 nM. The “CYP11B enzymatic assay % inhibition at 100 nM (Biological Example No. 9)” value in series [3] was “T (T means the compound had a percent inhibition of less than 32% when tested at 100 nM)”. Further, the inhibition at 0.001 µM in series [4] (setting [8]) lay within 10 to 50%.
The corresponding values for `CCC(=O)N1CCC[C@@]2(C)C(CCC3C2CC[C@]2(C)C(c4cccnc4)=CCC32)C1` (stereo partly drawn) [Compound 435, 1-((5aR,7aS)-5a,7a-dimethyl-8-(pyridin-3-yl)-3,4,5,5a,5b,6,7,7a,10,10a,10b,11,12,12a-tetradecahydrocyclopenta[5,6]naphtho[2,1-c]azepin-2(1H)-yl)propan-1-one] are less than 11 nM, greater than 1000 nM, “U (U means the compound had a percent inhibition of greater than or equal to 32%)” and 10 to 50%.
The corresponding values for `CCCC(=O)N1CCC2CC[C@@H]3[C@H](CC[C@]4(C)C(n5ccnc5)=CC[C@@H]34)[C@@]2(C)CC1` (stereo partly drawn) [Compound 434, 1-((5aS,7aS)-8-(1H-imidazol-1-yl)-5a,7a-dimethyl-1,2,5,5a,5b,6,7,7a,10,10a,10b,11,12,12a-tetradecahydrocyclopenta[5,6]naphtho[1,2-d]azepin-3(4H)-yl)butan-1-one] are less than 11 nM, greater than 1000 nM, “T (T means the compound had a percent inhibition of less than 32% when tested at 100 nM)” and greater than 50%.
As to `Cc1ccncc1C1=CCC2C3CN(C)C4=CC(=O)CC[C@]4(C)C3CC[C@]12C` (stereo partly drawn) [Compound 444, (9aR,11aS)-5,9a,11a-trimethyl-1-(4-methylpyridin-3-yl)-3b,4,5,8,9,9a,9b,10,11,11a-decahydro-3H-cyclopenta[i]phenanthridin-7(3aH)-one], the IC50 at CYP17 (H295R cells) (testosterone, read-out: CYP17 cellular assay IC50 (Biological Example No. 7)) was less than 15 nM. For the same compound, the “CYP11B enzymatic assay % inhibition at 100 nM (Biological Example No. 9)” value in series [3] was “U (U means the compound had a percent inhibition of greater than or equal to 32%)”. For the same compound, in series [4] (setting [8]), the inhibition at 0.001 µM lay within 10 to 50%.

What is called IC50 is the midpoint of a concentration-inhibition curve. A word on the inhibition: it is the share of the control response that was lost under treatment. A word on the half-life: it is how long it takes for the measured level to halve. Lower therefore signals fast loss.
